Data taken from patent US20120322661A1, “Organized Liquid Mixture” (priority 2010, published 2012).

Assay: Conductivity measurement for micellar entrapment of fomesafen sodium
Format: physicochemical
Settings: aqueous solution
Protocol: A series of the experiments were conducted to establish that a combination of a sorbitan ester alkoxylate with a vegetable oil ethoxylate provided a stable micellar solubilization of the water soluble herbicide fomesafen sodium. Studies were also designed to confirm that the fomesafen sodium present within the formulation was partitioned between the micro-domains of the aqueous phase and the micellar oil phase.
The conductivity of an aqueous solution of fomesafen sodium was measured at different concentrations of fomesafen sodium. The results were plotted on a graph with measured conductivity plotted on Y-axis and the corresponding concentration on the X-axis. It was observed that the conductivity increased with the salt concentration and dropped suddenly above 0.45 g/L. It is believed that at this inflection concentration, fomesafen sodium self-aggregated to form an aggregated structure.
In another series of experiments, the formulations according to the present invention exemplified by examples 1 and 2 were tested at various concentrations of fomesafen sodium active ingredients and the resulting conductivity was measured. The results were plotted on a graph with measured conductivity plotted on Y-axis and the corresponding concentration on the X-axis. […]

For `CS(=O)(=O)N=C([O-])c1cc(Oc2ccc(C(F)(F)F)cc2Cl)ccc1[N+](=O)[O-].[Na+]` [fomesafen sodium, sodium (EZ)-5-(2-chloro-α,α,α-trifluoro-p-tolyloxy)-N-mesyl-2-nitrobenzenecarboximidate], which “Concentration above which conductivity dropped suddenly (inflection concentration, self-aggregation)” value is on record?
The value was “above 0.45 g/L”.
